Values quoted from earlier work as cited in patent US10195206B2, “Two-component pharmaceutical composition for the treatment of pain” (BRIDGE THERAPEUTICS, INC., priority 2005, dated 2019).

Experiments:
[1] = in vivo
[2] = in vivo; remark: listed apart in the source

Row | Structure (SMILES) | half-life [1] | solubility in water | oral and/or gastrointestinal bioavailability [2]
1 | CO[C@]12CCC3(C[C@@H]1[C@](C)(O)C(C)(C)C)[C@H]1Cc4ccc(O)c5c4[C@@]3(CCN1CC1CC1)[C@H]2O5.Cl [Buprenorphine, 17-(cyclopropylmethyl)-α-(1,1-dimethylethyl)-4,5-epoxy-18,19-dihydro-3-hydroxy-6-methoxy-α-methyl-6,14-ethenomorphian-7-methanol] | approximately 36 hours | limited solubility | poor
2 | CN1C(C(=O)Nc2ccccn2)=C(O)c2ccccc2S1(=O)=O [Piroxicam, 4-hydroxyl-2-methyl-N-2-pyridinal-2H-1,2-benzothiazine-3-carboximide 1,1-dioxide] | approximately 50 hours | sparingly soluble | –
